Results taken from patent US20110081315A1, “NOVEL MACROCYCLIC INHIBITORS OF HEPATITIS C VIRUS REPLICATION” (INTERMUNE, INC., priority 2009, published 2011).
Where two headings read alike, the source gives them in different places.

Columns and labels:
[1] = rcm bond
[2] = system: hepatitis C replicon; assay: hepatitis C replicon EC50 assay; type: cell-based; conditions: Hepatitis C virus; hepatitis C replicon; read-out: EC50
Outline: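 Replicon EC50 determined per a referenced patent protocol; assays run at ambient temperature (23° C.) in 50 mM Tris-HCl pH 7.5 with 15% glycerol, 0.6 mM LDAO, 25 μM NS4A peptide and 10 mM DTT.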

[3] = target: NS3/NS4 complexes (Hepatitis C virus genotype 1a, UniProt P27958); assay: NS3/NS4 inhibition assay (IC50); type: biochemical; conditions: NS3/NS4 activity; 23° C., 25 μM NS4A peptide
Chain of NS3/NS4 complexes (P27958 1027-1657, one chain of several): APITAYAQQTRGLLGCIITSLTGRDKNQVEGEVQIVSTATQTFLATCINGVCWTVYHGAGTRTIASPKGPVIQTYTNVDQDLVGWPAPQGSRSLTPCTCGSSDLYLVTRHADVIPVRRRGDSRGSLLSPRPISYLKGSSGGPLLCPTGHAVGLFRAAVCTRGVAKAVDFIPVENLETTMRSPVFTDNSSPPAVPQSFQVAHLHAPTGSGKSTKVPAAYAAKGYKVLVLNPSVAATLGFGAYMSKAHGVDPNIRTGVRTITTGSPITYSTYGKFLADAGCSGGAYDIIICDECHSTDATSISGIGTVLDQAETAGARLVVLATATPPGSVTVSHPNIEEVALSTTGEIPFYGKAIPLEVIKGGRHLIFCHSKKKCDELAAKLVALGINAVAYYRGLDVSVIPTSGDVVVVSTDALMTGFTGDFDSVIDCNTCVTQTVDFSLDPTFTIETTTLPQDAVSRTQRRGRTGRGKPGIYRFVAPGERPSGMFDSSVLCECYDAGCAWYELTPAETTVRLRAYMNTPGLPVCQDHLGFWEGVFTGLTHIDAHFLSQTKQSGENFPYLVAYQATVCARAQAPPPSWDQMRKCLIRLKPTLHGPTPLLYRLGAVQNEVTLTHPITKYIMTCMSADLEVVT
Outline: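 First, NS3 and NS4 are complexed; test compounds are then titrated against the complex at room temperature (23° C.) in Tris-HCl buffer, pH 7.5, supplemented with glycerol (15%), LDAO (0.6 mM), DTT (10 mM) and NS4A peptide (25 μM) to give IC50. Separately, replicon cells give EC50.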

SMILES	ring closure, yield of all isomers ([1]; from C=CCCCCC[C@H](Nc1ccc(C(F)(F)F)cc1)C(=O)N1C[C@H](Oc2ncc3ncn(C(C)C)c3n2)C[C@H]1C(=O)N[C@]1(C(=O)NS(=O)(=O)C2(C)CC2)C[C@H]1C=C, Zhan catalyst, toluene, 7.78 mM, 65.0 °C, 1.5 h) [%]	ring closure, yield of all isomers ([1]; from C=CCCCCN(C(=O)[C@@H]1C[C@@H](O)C[C@H]1C(=O)N[C@]1(C(=O)OCC)C[C@H]1C=C)c1ccccc1, Hoveyda-Grubbs 2nd generation, DCE, 0.167 mM, 83.0 °C, 16.0 h) [%]	ring closure, yield of all isomers ([1]; from C=CCCCCC[C@H](Nc1cccc(F)c1)C(=O)N1C[C@H](Oc2nc(-c3nc(C(C)C)cs3)nc3c(C)c(OC)ccc23)C[C@H]1C(=O)N[C@]1(C(=O)NS(=O)(=O)C2(C)CC2)C[C@H]1C=C, Zhan catalyst, toluene, 7.24 mM, 65.0 °C, 0.67 h) [%]	EC50 [2] [µM]	IC50 [3] [µM]
CC(C)n1cnc2cnc(O[C@@H]3C[C@H]4C(=O)N[C@]5(C(=O)NS(=O)(=O)C6(C)CC6)C[C@H]5C=CCCCCC[C@H](Nc5ccc(C(F)(F)F)cc5)C(=O)N4C3)nc21	29				
CCOC(=O)[C@@]12C[C@H]1C=CCCCCN(c1ccccc1)C(=O)[C@@H]1C[C@@H](O)C[C@H]1C(=O)N2		94.6			
COc1ccc2c(O[C@@H]3C[C@H]4C(=O)N[C@]5(C(=O)NS(=O)(=O)C6(C)CC6)C[C@H]5C=CCCCCC[C@H](Nc5cccc(F)c5)C(=O)N4C3)nc(-c3nc(C(C)C)cs3)nc2c1C			24		
CC(C)n1c(O[C@@H]2C[C@H]3C(=O)N[C@]4(C(=O)NS(=O)(=O)N(C)C)C[C@H]4/C=C\CCCCC[C@H](NC(=O)OC(C)(C)C)C(=O)N3C2)nc2c(-c3nc(Cc4cccc(Cl)c4)cs3)cccc21 [Compound 1761]				0.01 to 0.1	< 0.01
CC(C)n1c(O[C@@H]2C[C@H]3C(=O)N[C@]4(C(=O)O)C[C@H]4/C=C\CCCCC[C@H](Nc4ccc(F)cc4)C(=O)N3C2)nc2c(-c3nc(C4CCCC4)cs3)cccc21 [Compound 1762]				> 0.1	0.01 to 0.1
CC(C)n1c(O[C@@H]2C[C@H]3C(=O)N[C@]4(C(=O)O)C[C@H]4/C=C\CCCCC[C@H](Nc4cccc(F)c4)C(=O)N3C2)nc2c(-c3nc(C4CCCC4)cs3)cccc21 [Compound 1763]				> 0.1	0.01 to 0.1
CC(C)n1c(O[C@@H]2C[C@H]3C(=O)N[C@]4(C(=O)NS(=O)(=O)C5(C)CC5)C[C@H]4/C=C\CCCCC[C@H](NC(=O)OC(C)(C)C)C(=O)N3C2)nc2c(-c3nc4c(s3)CCC4)cccc21 [Compound 1765]				< 0.01	< 0.01
CC(C)n1c(O[C@@H]2C[C@H]3C(=O)N[C@]4(C(=O)NS(=O)(=O)N(C)C)C[C@H]4/C=C\CCCCC[C@H](NC(=O)OC(C)(C)C)C(=O)N3C2)nc2c(-c3nc(C4CCC4)cs3)cccc21 [Compound 1766]				< 0.01	< 0.01
CC(C)n1c(O[C@@H]2C[C@H]3C(=O)N[C@]4(C(=O)NS(=O)(=O)C5(C)CC5)C[C@H]4/C=C\CCCCC[C@H](NC(=O)OC(C)(C)C)C(=O)N3C2)nc2c(-c3nc(Cc4ccccc4)cs3)cccc21 [Compound 1767]				< 0.01	< 0.01
CC(C)n1c(O[C@@H]2C[C@H]3C(=O)N[C@]4(C(=O)NS(=O)(=O)N(C)C)C[C@H]4/C=C\CCCCC[C@H](NC(=O)OC(C)(C)C)C(=O)N3C2)nc2c(-c3nc(Cc4ccccc4)cs3)cccc21 [Compound 1768]				< 0.01	< 0.01
CC(C)n1c(O[C@@H]2C[C@H]3C(=O)N[C@]4(C(=O)NS(=O)(=O)C5(C)CC5)C[C@H]4/C=C\CCCCC[C@H](NC(=O)OC(C)(C)C)C(=O)N3C2)nc2c(-c3nc(C4CCCCC4)cs3)cccc21 [Compound 1769]				< 0.01	< 0.01
CC(C)n1c(O[C@@H]2C[C@H]3C(=O)N[C@]4(C(=O)NS(=O)(=O)N(C)C)C[C@H]4/C=C\CCCCC[C@H](NC(=O)OC(C)(C)C)C(=O)N3C2)nc2c(-c3nc(C4CCCCC4)cs3)cccc21 [Compound 1770]				0.01 to 0.1	< 0.01
CC(C)n1c(O[C@@H]2C[C@H]3C(=O)N[C@]4(C(=O)NS(=O)(=O)C5(C)CC5)C[C@H]4/C=C\CCCCC[C@H](NC(=O)OC(C)(C)C)C(=O)N3C2)nc2c(-c3nc(C4CCC4)cs3)cccc21 [Compound 1771]				< 0.01	< 0.01
CC(C)n1c(O[C@@H]2C[C@H]3C(=O)N[C@]4(C(=O)NS(=O)(=O)N(C)C)C[C@H]4/C=C\CCCCC[C@H](NC(=O)OC(C)(C)C)C(=O)N3C2)nc2c(-c3nc(CC4CCCCC4)cs3)cccc21 [Compound 1772]				0.01 to 0.1	< 0.01
CC(C)n1c(O[C@@H]2C[C@H]3C(=O)N[C@]4(C(=O)NS(=O)(=O)C5(C)CC5)C[C@H]4/C=C\CCCCC[C@H](NC(=O)OC(C)(C)C)C(=O)N3C2)nc2c(-c3nc(CC4CCCCC4)cs3)cccc21 [Compound 1773]				< 0.01	< 0.01
CC(C)n1c(O[C@@H]2C[C@H]3C(=O)N[C@]4(C(=O)NS(=O)(=O)C5(C)CC5)C[C@H]4/C=C\CCCCC[C@H](NC(=O)OC(C)(C)C)C(=O)N3C2)nc2c(-c3nc4c(s3)CCCC4(C)C)cccc21 [Compound 1774]				0.01 to 0.1	< 0.01
CC(C)n1c(O[C@@H]2C[C@H]3C(=O)N[C@]4(C(=O)NS(=O)(=O)N(C)C)C[C@H]4/C=C\CCCCC[C@H](NC(=O)OC(C)(C)C)C(=O)N3C2)nc2c(-c3nc4c(s3)CCCC4(C)C)cccc21 [Compound 1775]				0.01 to 0.1	< 0.01
CC(C)n1c(O[C@@H]2C[C@H]3C(=O)N[C@]4(C(=O)NS(=O)(=O)N(C)C)C[C@H]4/C=C\CCCCC[C@H](NC(=O)OC(C)(C)C)C(=O)N3C2)nc2c(-c3nc(C4CC4)cs3)cccc21 [Compound 1776]				< 0.01	< 0.01
CC(C)n1c(O[C@@H]2C[C@H]3C(=O)N[C@]4(C(=O)NS(=O)(=O)C5(C)CC5)C[C@H]4/C=C\CCCCC[C@H](NC(=O)OC(C)(C)C)C(=O)N3C2)nc2c(-c3nc(C4CC4)cs3)cccc21 [Compound 1777]				< 0.01	< 0.01
CC(C)n1c(O[C@@H]2C[C@H]3C(=O)N[C@]4(C(=O)NS(=O)(=O)C5(C)CC5)C[C@H]4/C=C\CCCCC[C@H](NC(=O)OC(C)(C)C)C(=O)N3C2)nc2ncccc21 [Compound 1779]				0.01 to 0.1	< 0.01
CC(C)n1c(O[C@@H]2C[C@H]3C(=O)N[C@]4(C(=O)NS(=O)(=O)N(C)C)C[C@H]4/C=C\CCCCC[C@H](NC(=O)OC(C)(C)C)C(=O)N3C2)nc2ncccc21 [Compound 1780]				0.01 to 0.1	< 0.01
